This experiment is described as follows: Diet-induced obesity (DIO) mice study: blood glucose, insulin, plasma lipids, body weight, food intake. The class given is in vivo, C57BL/6J male mice. Particulars: Atorvastatin 20 mg/kg, test articles tid po 10 mL/kg + ad libitum.

Structures are written as SMILES.

For the compound `CC(C)c1c(C(=O)Nc2ccccc2)c(-c2ccccc2)c(-c2ccc(F)cc2)n1CC[C@@H](O)C[C@@H](O)CC(=O)O` [Atorvastatin], the “body weight of the DIO mice” value is “significantly decrease”. For the same compound, where the note is “DIO mice, 0-8 weeks”, the blood glucose level entry is recorded as “significantly decrease” and the insulin sensibility result is recorded as “significantly increase”.
